Results from patent US10857246B2, “Nuclear imaging and radiotherapeutics agents targeting carbonic anhydrase IX and uses thereof” (THE JOHNS HOPKINS UNIVERSITY, priority 2015, dated 2020).
Where “and” joins values, the source holds several entries; their conditions need not be identical. Equal entries are not always repeated.

System: CAIX-expressing SK-RC-52 tumors
Test: Biodistribution in mice bearing SK-RC-52 xenografts
Assay type: in vivo
Settings: 1 h post-injection, 740 kBq i.v.
Protocol: Animal experiments were performed in accordance with protocols approved by the Johns Hopkins Animal Care and Use Committee (ACUC). Six-week-old female NOD/SCID mice were purchased from the Animal Resource Core of the Sidney Kimmel Comprehensive Cancer Center of Johns Hopkins and were subcutaneously injected in the lower left flank or upper right flank with 1×10^6 SK-RC-52 cells in RPMI 1640 GlutaMAX™ media (Life Technologies, Frederick, Md.) supplemented with 1% fetal bovine serum (FBS). Mice were monitored for tumor size and used for SPECT/CT imaging when the size of the tumor reached 100 mm^3.
Mice bearing SK-RC-52 xenografts at lower left flank were injected intravenously with 740 kBq (20 μCi) of [^111In]XYIMSR-01, or [^177Lu]XYIMSR-01 in 200 μL of PBS. For competitive blocking, same tumor bearing mice were injected with 740 kBq (20 μCi) of [^111In]XYIMSR-01 and 200 nmole of 8 in 200 μL of PBS. At 1 h, 4 h, 8 h, 24 h and 48 h post-injection, mice were sacrificed by cervical dislocation and the blood was immediately collected by cardiac puncture. Heart, lungs, pancreas, spleen, fat, brain, muscle, small intestines, liver, stomach, kidney, urinary bladder, and tumor were collected. Each organ was weighed and the tissue radioactivity was measured with an automated gamma counter (1282 Compugamma CS, Pharmacia/LKBNuclear, Inc., Mt. Waverly, Vic. Australia). The percentage of injected dose per gram of tissue (% ID/g) was calculated by comparison with samples of a standard dilution of the initial dose. All measurements were corrected for radioactive decay.
Data were expressed as mean±standard deviation (SD). Prism software (GraphPAD, San Diego, Calif.) was used to determine statistical significance. Statistical significance was calculated using a paired t test. P-values <0.0001 were considered significant.
Mice bearing SK-RC-52 xenografts within the lower left flank were injected intravenously with 740 kBq (20 μCi) of [Al^18F]XYIMSR-04 in 200 μL of PBS. At specific 1 hour time point mentioned in the paper, mice (n=5) were sacrificed by cervical dislocation and the blood was immediately collected by cardiac puncture. Heart, lungs, pancreas, spleen, fat, brain, muscle, small intestines, liver, bone, stomach, kidney, urinary bladder, and tumor were collected. Each organ was weighed and the tissue radioactivity was measured with an automated gamma counter (1282 Compugamma CS, Pharmacia/LKBNuclear, Inc., Mt. Waverly, Vic. Australia). The percentage of injected dose per gram of tissue (% ID/g) was calculated by comparison with samples of a standard dilution of the initial dose. All measurements were corrected for radioactive decay. Data were expressed as mean±standard deviation (SD). Prism software (GraphPAD, San Diego, Calif.) was used to determine statistical significance. Statistical significance was calculated using a paired t test. P-values <0.0001 were considered significant.
Mice bearing SK-RC-52 xenografts within the upper right flank were injected intravenously with 740 kBq (20 μCi) of [^64Cu]XYIMSR-06 in 200 μL of PBS. For in vivo competition (binding specificity) studies, tumor-bearing mice were injected with 740 kBq (20 μCi) of [^64Cu]XYIMSR-06 and 200 nmole of 8 in 200 μL of PBS concurrently. At specific times after injection (1 h, 4 h, 8 h and 24 h), mice (n=5) were sacrificed by cervical dislocation with blood immediately collected by cardiac puncture. Heart, lungs, pancreas, spleen, fat, brain, muscle, small intestines, liver, stomach, kidney, urinary bladder, and tumor were also collected. Each organ was weighed and the tissue radioactivity was measured with an automated gamma counter (1282 Compugamma CS, Pharmacia/LKBNuclear, Inc., Mt. Waverly, Vic. Australia). The percentage of injected dose per gram of tissue (% ID/g) was calculated by comparison with samples of a standard dilution of the initial dose. All measurements were corrected for radioactive decay. Data were expressed as mean±standard deviation (SD). […]

CC(CCC(=O)N[C@@H](CC(=O)N[C@@H](CC(=O)N[C@@H](CCCCn1cc(CCCC(=O)Nc2nnc(S(N)(=O)=O)s2)nn1)C(=O)NCCOCCOCCNC(=O)CN1CCN2CCN(CC1)CC(=O)[O][Al]([18F])[O]C(=O)C2)C(=O)O)C(=O)O)(c1ccc(O)cc1)c1ccc(O)cc1 [[Al^18F]XYIMSR-04]
Biodistribution Kidney: 50.84 ± 2.65 % ID/g | Biodistribution Muscle: 1.74 ± 0.58 % ID/g | Biodistribution Small intestine: 9.59 ± 1.04 % ID/g | Tumor/Kidney ratio: 0.28 and 0.28 ± 0.03 | Tumor/Muscle ratio: 9.74 and 9.74 ± 2.9
